Test results from patent US20060088545A1, “Use of inhibitors of the protease of the human immunodeficiency virus (hiv) to block cell migration and/or invasion, tissue infiltration and oedema for the therary of diseases associated therewith” (priority 2001, published 2006).
“Also recorded” adds a separate entry of the source. Like-named read-outs stand apart in the source and are kept apart here.

Assays:
[1] = system: lung carcinoma cells (A549); assay: Cell growth assay of A549 cells; type: cell-based, human; conditions: 10 μM; 4 days
Procedure: Shown is the result of a representative cell growth assay performed on the lung carcinoma cells. Human lung carcinoma cells (A549; ATCC) were plated in triplicate (8×10^4 cells/well) in 12-well plates. […] Ensoli et al., 1994b): For all the in vitro studies HIV-PI as endotoxin-free pure powder (a kind gift of Merck Sharp & Dohme and Roche) were resuspended in distilled water. Assays were repeated at least three times.

[2] = system: angiogenesis induced by bFGF or VEGF in the chorioallantoic membrane; conditions: for VEGF-induced angiogenesis, % of the untreated VEGF control / bFGF-induced angiogenesis, % of the untreated bFGF control / Average vessel (number/mm^2 ± SD): HIV-PI 10 μM; for basal CAM vascularization: drug administered alone; for toxicity in CAM: in vivo
Procedure: CAM assays were performed with 1 mm^3 sterilized gelatin sponges (Gelfoam; Upjohn Co, Kalamazoo, Mich.) adsorbed with bFGF or VEGF (1 μg or 100 ng, respectively) in 5 μl of PBS, and with buffer, HIV-PI (10 μM) or taxol (250 nM) (Bristol-Myers Squibb Co., Princeton, N.J.) as described (Ribatti et al, Int. J. Dev. Biol., 1996). CAM were examined daily until day 12 under an Olympus SZX9 stereomicroscope. Images (1024×1024 pixels) were captured at a distance of 2 mm from the edge of the sponge using a cooled digital CCD Hamamatsu ORCA camera (Hamamatsu Photonics Italia, Arese, Italy). Vessel number was quantified with the ImageProPlus 4.0 imaging software (Media Cybernetics, Silver Spring, Md.) in 3 randomly selected areas per egg ([…]).
Results are expressed as the average number of vessels/mm^2±SD from the indicated number of CAM per experimental condition.

[3] = system: breast carcinoma (MDA-MB468) cells; assay: Invasion assay of MDA-MB468 cells in response to bFGF; type: cell-based, human; conditions: 0.1, 1 or 10 μM
Procedure: Shown is the result of a representative invasion assay performed on the breast carcinoma cells MDA-MB468. […] The invasion assays were performed in the Boyden chamber. Polycarbonate filters ([…]; Nucleoprobe, Cabin John, Md.) were coated first with collagen IV and then with Matrigel (Collaborative Biomedical Products) as described previously (Barillari et al., 1999b). […] Human recombinant bFGF (50 ng/ml) was placed in the lower compartment as chemoattractant. […] Louis, Mo.). Ten random filter fields were counted by light microscopy as described previously (Barillari et al., 1999b). Assays were repeated two times.

[4] = system: IL-1α; assay: IL-1α production by KS cells (ELISA); type: cell-based, human; conditions: 0.1, 1 and 10 μM, 5 days + 24 hours
Procedure: After 24 hours of incubation, the supernatants of the cultures were tested by ELISA (R & D Systems, Minneapolis, Minn., USA) to determine the quantity of IL-6 present in the medium. The quantity of IL-6 is expressed in pg/ml of supernatant. The same tests were carried out for bFGF, VEGF, IL-1α and IL-1β by means of commercial ELISA kits.
KS cells secrete cytokines with an inflammatory, oedemigenic, angiogenic and proliferative activity with autocrine and paracrine effects (Ensoli and Stürzl, 1998). These factors mediate all the processes required for KS-like lesions formation (angiogenesis, cellular proliferation and invasion, inflammatory Infiltration, oedema) and vascular permeability and oedema induced by KS cells in nude mice. […] The quantity of bFGF, VEGF, IL-1 and IL-6 was dosed with immuno-enzymatic trials in the supernatants of the KS cells after 24 hours of culture in the absence of serum and in the continuous presence of the two HIV-PI (ELISA). […] Furthermore IL-6 plays a key role in the multicentric Cstleman's diseases and in the growth of lymphomas (Tosato et al., 1993; Peterson and Frizzera, 1993; Asou et al., 1998; Ramsay et al., 1994), another type of tumour whose incidence is reduced in patients treated with HIV-PI (International Collaboration on HIV and Cancer 2000).

[5] = system: hepato-carcinoma (SK-Hep-1) cells; assay: Tumour lesions induced by SK-Hep-1 cells in nude mice; type: in vivo; conditions: 5×10^6 cells/site; daily treatment
Procedure: Twenty-four hours before cell injection, the mice have received sub-lethal irradiation (400 G) in order to increase the tumour up-take. The treatment with HIV-PI or saline solution continued until sacrifice. The size of the lesions present at the injection site was evaluated daily by caliper measurement. External lesion area was then calculated as the product of the two major lesion diameters. The mean size (cm^2) of the lesions present at the injection site is shown.
To determine whether HIV-PI could inhibit the growth of malignant solid and lymphoid tumours, nude mice were inoculated with hepato-carcinoma cells (SK-Hep-1), lung carcinoma cells (A549), breast adeno-carcinoma cells (MDA-MB-468), myelo-monocytic leukaemia cells (U937), and T lymhocytic leukaemia cells (Jurkat).

[6] = system: primary macrovascular (umbilical vein) endothelial cells (HUVEC); assay: Proliferation assay of HUVEC, basal or bFGF-induced; type: cell-based, human; conditions: for basal or bFGF-induced proliferation (number of cells): 0.1, 1 or 10 μM, 5 days, bFGF 10 ng/ml
Procedure: Human endothelial cells from the umbilical vein (HUVEC, Blo-Whittaker, Verviers, Belgium) were plated in triplicate (1.5×10^4 cells/well) in plates of 12 wells previously covered with gelatine. The next day the cells were incubated for 4 hours in a medium without serum and cultivated in RPMI 1640 medium (Life Technologies, Eragny, France) with the addition of 10% of foetal bovine serum (FBS) together with bFGF in PBS buffer (10 ng/ml) or PBS buffer alone.
The concentrations of HIV-PI used were the same as those present in plasma of treated patients (Deeks et al., 1997).

CC(C)(C)NC(=O)[C@@H]1C[C@@H]2CCCC[C@@H]2CN1C[C@@H](O)[C@H](Cc1ccccc1)NC(=O)[C@H](CC(N)=O)NC(=O)c1ccc2ccccc2n1 [Saquinavir, saquinavir]
proliferation [1]: do not interfere
VEGF-induced angiogenesis, % of the untreated VEGF control [2]: 11%
bFGF-induced angiogenesis, % of the untreated bFGF control [2]: 19%
Average vessel (number/mm^2 ± SD) ([2]; VEGF 100 ng): 5.39 ± 0.67 number/mm^2
Average vessel (number/mm^2 ± SD) ([2]; bFGF 1 μg, taxol 250 nM): 6.08 ± 1.84 number/mm^2
basal CAM vascularization [2]: did not affect
toxicity in CAM [2]: not associated with toxicity
invasive capacity in response to bFGF [3]: inhibit
production of IL-1α by KS cells [4]: reduced; also recorded: inhibited
development of tumour lesions (lesion size) [5]: inhibit
survival of macrovascular endothelial cells [6]: no effect
basal or bFGF-induced proliferation (number of cells) [6]: no effect

CC(C)(C)NC(=O)[C@@H]1CN(Cc2cccnc2)CCN1C[C@@H](O)C[C@@H](Cc1ccccc1)C(=O)N[C@H]1c2ccccc2C[C@H]1O [Indinavir, indinavir]
proliferation [1]: do not interfere
VEGF-induced angiogenesis, % of the untreated VEGF control [2]: 36%
bFGF-induced angiogenesis, % of the untreated bFGF control [2]: 42%
Average vessel (number/mm^2 ± SD) ([2]; VEGF 100 ng): 7.70 ± 2.52 number/mm^2
Average vessel (number/mm^2 ± SD) ([2]; bFGF 1 μg, taxol 250 nM): 8.22 ± 2.54 number/mm^2
basal CAM vascularization [2]: did not affect
toxicity in CAM [2]: not associated with toxicity
invasive capacity in response to bFGF [3]: inhibit
production of IL-1α by KS cells [4]: inhibited
production of IL-1α by KS cells ([4]; listed as indinavir): reduced
development of tumour lesions (lesion size) [5]: inhibit
survival of macrovascular endothelial cells [6]: no effect
basal or bFGF-induced proliferation (number of cells) [6]: no effect
